# Reference: patent US8633313B2, “Heterocyclic compounds and their uses” (Amgen Inc., priority 2009, dated 2014)
# Key:
# PI3K delta = target: T1, PI3K delta (Homo sapiens, UniProt O00329); experiment: In vitro enzyme assay, PI3K delta biochemical potency; conditions: comparison of the two separated enantiomers
# T1 construct: Full length p110 subunits of PI3k α, β and δ, N-terminally labeled with polyHis tag; polyHis (N); made in house; host or cells: Sf9 insect cells (baculovirus)
# Method: Full length p110 subunits of PI3k α, β and δ, N-terminally labeled with polyHis tag, were coexpressed with p85 with Baculo virus expression vectors in sf9 insect cells. P110/p85 heterodimers were purified by sequential Ni-NTA, Q-HP, Superdex-100 chromatography. Purified α, β and δ isozymes were stored at −20° C. in 20 mM Tris, pH 8, 0.2M NaCl, 50% glycerol, 5 mM DTT, 2 mM Na cholate. Truncated PI3Kγ, residues 114-1102, N-terminally labeled with polyHis tag, was expressed with Baculo virus in Hi5 insect cells. The γ isozyme was purified by sequential Ni-NTA, Superdex-200, Q-HP chromatography. The γ isozyme was stored frozen at −80° C. in NaH2PO4, pH 8, 0.2M NaCl, 1% ethylene glycol, 2 mM β-mercaptoethanol.
# Assays were performed in 25 μL with the above final concentrations of components in white polyproplyene plates (Costar 3355). Phospatidyl inositol phosphoacceptor, PtdIns(4,5)P2 P4508, was from Echelon Biosciences. The ATPase activity of the alpha and gamma isozymes was not greatly stimulated by PtdIns(4,5)P2 under these conditions and was therefore omitted from the assay of these isozymes. Test compounds were dissolved in dimethyl sulfoxide and diluted with three-fold serial dilutions. The compound in DMSO (1 μL) was added per test well, and the inhibition relative to reactions containing no compound, with and without enzyme was determined. After assay incubation at rt, the reaction was stopped and residual ATP determined by addition of an equal volume of a commercial ATP bioluminescence kit (Perkin Elmer EasyLite) according to the manufacturer's instructions, and detected using a AnalystGT luminometer.
# [1] = system: rheumatoid arthritis model; conditions: in vivo; cited from earlier work
# [2] = system: systemic lupus erythematosis model; conditions: in vivo; cited from earlier work
# protein kinases = conditions: cited from earlier work
# p110δ = target: T2, p110δ (Homo sapiens, UniProt O00329); conditions: cited from earlier work
# T2 sequence (O00329 1-1044): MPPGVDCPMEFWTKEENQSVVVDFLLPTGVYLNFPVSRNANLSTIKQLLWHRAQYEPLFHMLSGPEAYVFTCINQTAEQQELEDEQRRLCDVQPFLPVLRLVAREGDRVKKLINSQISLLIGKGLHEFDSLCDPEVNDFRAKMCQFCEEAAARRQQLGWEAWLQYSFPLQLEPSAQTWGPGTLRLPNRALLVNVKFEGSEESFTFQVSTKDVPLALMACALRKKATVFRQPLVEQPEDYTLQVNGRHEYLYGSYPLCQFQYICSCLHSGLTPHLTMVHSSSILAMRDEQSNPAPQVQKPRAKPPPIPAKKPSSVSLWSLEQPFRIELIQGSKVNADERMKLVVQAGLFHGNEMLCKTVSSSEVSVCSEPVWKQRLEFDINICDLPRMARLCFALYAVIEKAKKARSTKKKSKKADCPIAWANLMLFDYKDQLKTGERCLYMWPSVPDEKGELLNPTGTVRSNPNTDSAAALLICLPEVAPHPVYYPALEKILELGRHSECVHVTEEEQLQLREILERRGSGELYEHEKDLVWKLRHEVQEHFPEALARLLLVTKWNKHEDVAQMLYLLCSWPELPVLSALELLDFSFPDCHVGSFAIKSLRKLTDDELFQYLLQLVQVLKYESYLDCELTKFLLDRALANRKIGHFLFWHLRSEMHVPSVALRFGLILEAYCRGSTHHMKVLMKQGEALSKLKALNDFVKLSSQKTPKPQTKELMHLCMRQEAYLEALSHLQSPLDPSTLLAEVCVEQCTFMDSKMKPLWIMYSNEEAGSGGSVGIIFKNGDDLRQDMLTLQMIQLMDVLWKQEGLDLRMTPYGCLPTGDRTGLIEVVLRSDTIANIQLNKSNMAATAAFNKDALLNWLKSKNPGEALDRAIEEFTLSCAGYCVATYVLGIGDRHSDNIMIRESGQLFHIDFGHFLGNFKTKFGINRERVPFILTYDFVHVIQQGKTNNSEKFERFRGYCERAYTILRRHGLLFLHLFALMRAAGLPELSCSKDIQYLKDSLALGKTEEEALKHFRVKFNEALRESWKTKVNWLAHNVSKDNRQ
# [3] = system: ovalbumin-induced airway inflammation; conditions: cited from earlier work
# T1 sequence (P27986 whole entry partner, one chain of several): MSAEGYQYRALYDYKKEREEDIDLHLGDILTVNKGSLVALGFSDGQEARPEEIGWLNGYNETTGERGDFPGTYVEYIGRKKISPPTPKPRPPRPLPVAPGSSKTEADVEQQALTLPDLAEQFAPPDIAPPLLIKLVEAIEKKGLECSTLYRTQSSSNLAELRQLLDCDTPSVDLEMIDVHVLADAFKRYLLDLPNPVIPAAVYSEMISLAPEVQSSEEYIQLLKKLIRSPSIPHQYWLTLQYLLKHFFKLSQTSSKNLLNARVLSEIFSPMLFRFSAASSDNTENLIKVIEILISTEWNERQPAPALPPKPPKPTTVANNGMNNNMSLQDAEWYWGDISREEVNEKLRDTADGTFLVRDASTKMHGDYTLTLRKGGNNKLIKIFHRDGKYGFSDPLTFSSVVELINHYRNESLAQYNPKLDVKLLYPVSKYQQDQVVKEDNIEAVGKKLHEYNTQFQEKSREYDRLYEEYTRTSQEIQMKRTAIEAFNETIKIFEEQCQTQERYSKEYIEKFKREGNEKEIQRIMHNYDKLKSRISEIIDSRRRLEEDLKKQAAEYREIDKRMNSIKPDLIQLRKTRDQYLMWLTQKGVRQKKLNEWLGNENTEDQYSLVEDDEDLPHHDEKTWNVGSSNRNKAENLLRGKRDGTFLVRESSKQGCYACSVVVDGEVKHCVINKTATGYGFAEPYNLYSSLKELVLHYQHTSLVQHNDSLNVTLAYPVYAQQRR
"PI3K delta biochemical potency, one isomer relative to the other (PI3K delta)",SMILES,other results
less potent,"C[C@@H](Nc1ncnc(N)c1C#N)c1cc2ncccc2nc1-c1ccccc1F (single isomer, unassigned; isomer 4) [Example 2 R-isomer]",
more potent,"C[C@H](Nc1ncnc(N)c1C#N)c1cc2ncccc2nc1-c1ccccc1F (single isomer, unassigned; isomer 4) [Example 2 S-isomer]",
less potent,"C[C@@H](Nc1ncnc(N)c1C#N)c1cc2ncccc2nc1-c1cc(F)cc(F)c1 (single isomer, unassigned; isomer 4) [Example 3 R-isomer]",
more potent,"C[C@H](Nc1ncnc(N)c1C#N)c1cc2ncccc2nc1-c1cc(F)cc(F)c1 (single isomer, unassigned; isomer 4) [Example 3 S-isomer]",
less potent,"C[C@@H](Nc1ncnc(N)c1C#N)c1nc2cccnc2cc1-c1ccccc1 (single isomer, unassigned; isomer 4) [Example 4 R-isomer]",
more potent,"C[C@H](Nc1ncnc(N)c1C#N)c1nc2cccnc2cc1-c1ccccc1 (single isomer, unassigned; isomer 4) [Example 4 S-isomer]",
,O=C1NC(=O)/C(=C\c2ccc3nccnc3c2)S1 [AS 605240],efficacy in a mouse model of rheumatoid arthritis [1]: efficacious; onset of disease in a model of systemic lupus erythematosis [2]: delay onset of disease
,Cc1ccccc1-n1c(Cn2cnc3c(N)ncnc32)nc2cccc(C)c2c1=O [IC87114],activity against any protein kinases tested (protein kinases): no activity; inhibition of p110δ (p110δ): high nanomolar range (triple digit); inflammation and disease in a murine model of asthma [3]: significantly ameliorate inflammation and disease
